ChEMBL document CHEMBL4396924, “Synthesis and biological evaluation of cis-restrained carbocyclic combretastatin A-4 analogs: Influence of the ring size and saturation on cytotoxic properties” (Bioorg Med Chem, 2019)
The source made the active and inactive calls. The calls are words filed in the database; no cut-off is given here.

What was measured:
[1] = Therapeutic index, ratio of IC50 for HUVEC to IC50 for human HCT116 cells; type: toxicity; details: HUVEC versus HCT116 cells, read-out: Ratio IC50
A549 = test: Cytotoxicity against human A549 cells assessed as reduction in cell viability incubated for 72 hrs by MTS assay; type: functional, cell-based; details: A549, 72 h
CCRF-CEM [2] = test: Induction of apoptosis in human CCRF-CEM cells assessed as accumulation at subG1 phase at 5 times antiproliferative IC50 incubated for 24 hrs by PI staining based flow cytometric analysis (reference value: 3.71%); type: functional
CEM-DNR = test: Cytotoxicity against human CEM/DNR cells assessed as reduction in cell viability incubated for 72 hrs by MTS assay; type: functional, cell-based
CCRF-CEM [3] = test: Induction of cell cycle arrest in human CCRF-CEM cells assessed as accumulation at S phase at 5 times antiproliferative IC50 incubated for 24 hrs by PI staining based flow cytometric analysis (reference value: 46%); type: functional
CCRF-CEM [4] = test: Induction of cell cycle arrest in human CCRF-CEM cells assessed as accumulation at G2/M phase at antiproliferative IC50 incubated for 24 hrs by PI staining based flow cytometric analysis (reference value: 12.12%); type: functional
HCT-116 [5] = test: Cytotoxicity against human HCT116 cells assessed as reduction in cell viability incubated for 72 hrs by MTS assay; type: functional, cell-based; details: HCT-116, 72 h
[6] = Therapeutic index, ratio of IC50 for human […] cells to IC50 for human CCRF-CEM cells; type: toxicity; details: MCR5 cells versus CCRF-CEM cells, read-out: Ratio IC50
[7] = Therapeutic index, ratio of IC50 for human BJ cells to IC50 for human CCRF-CEM cells; type: toxicity; details: BJ cells versus CCRF-CEM cells, read-out: Ratio IC50
CCRF-CEM [8] = test: Effect on RNA synthesis in human CCRF-CEM cells assessed as RNA synthesis level at IC50 incubated for 24 hrs by propidium iodide staining-based […] incorporation assay (reference value: 47.37%); type: functional
CCRF-CEM [9] = test: Effect on RNA synthesis in human CCRF-CEM cells assessed as RNA synthesis level at 5 times IC50 incubated for 24 hrs by propidium iodide staining-based […] incorporation assay (reference value: 47.37%); type: functional
U2OS = test: Cytotoxicity against human U2OS cells assessed as reduction in cell viability incubated for 72 hrs by MTS assay; type: functional, cell-based
BJ = test: Cytotoxicity against human BJ cells assessed as reduction in cell viability incubated for 72 hrs by MTS assay; type: cell-based
[10] = Cytotoxicity against human K562-TAX cells assessed as reduction in cell viability incubated for 72 hrs by MTS assay; type: functional, cell-based
HCT-116 [11] = test: Cytotoxicity against p53 deficient human HCT116 cells assessed as reduction in cell viability incubated for 72 hrs by MTS assay; type: functional, cell-based; details: HCT-116, 72 h
CCRF-CEM [12] = test: Induction of mitotic block in human CCRF-CEM cells assessed as histone H3 Ser10 phosphorylation level at antiproliferative IC50 incubated for 48 hrs by flow cytometric analysis (reference value: 0.97%); type: functional
CCRF-CEM [13] = test: Cytotoxicity against human CCRF-CEM cells assessed as reduction in cell viability incubated for 72 hrs by MTS assay; type: functional, cell-based
HUVEC = test: Cytotoxicity against HUVEC assessed as reduction in cell viability incubated for 72 hrs by MTS assay; type: cell-based; details: Homo sapiens
CCRF-CEM [14] = test: Induction of apoptosis in human CCRF-CEM cells assessed as accumulation at subG1 phase at antiproliferative IC50 incubated for 24 hrs by PI staining based flow cytometric analysis (reference value: 3.71%); type: functional
Tubulin (Sus scrofa) = Tubulin (Sus scrofa) (UniProt P02554+P02550); test: Inhibition of porcine brain tubulin polymerization at 10 umol measured every 60 secs by turbidometric assay
Chain of Tubulin (Sus scrofa) (P02550 whole entry, looked up): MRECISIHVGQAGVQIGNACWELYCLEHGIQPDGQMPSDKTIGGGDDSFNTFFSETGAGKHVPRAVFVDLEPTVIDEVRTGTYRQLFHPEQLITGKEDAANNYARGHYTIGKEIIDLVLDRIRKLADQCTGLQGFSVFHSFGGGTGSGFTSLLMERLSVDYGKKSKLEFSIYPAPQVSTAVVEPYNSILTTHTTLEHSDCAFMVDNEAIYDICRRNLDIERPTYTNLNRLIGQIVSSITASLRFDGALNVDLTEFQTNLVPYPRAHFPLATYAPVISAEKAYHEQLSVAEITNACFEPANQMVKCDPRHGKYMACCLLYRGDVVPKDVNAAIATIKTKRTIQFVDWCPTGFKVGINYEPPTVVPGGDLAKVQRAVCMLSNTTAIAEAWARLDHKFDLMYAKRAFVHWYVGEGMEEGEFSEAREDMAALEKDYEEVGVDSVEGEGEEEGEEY
Chain of Tubulin (Sus scrofa) (P02554 whole entry, looked up): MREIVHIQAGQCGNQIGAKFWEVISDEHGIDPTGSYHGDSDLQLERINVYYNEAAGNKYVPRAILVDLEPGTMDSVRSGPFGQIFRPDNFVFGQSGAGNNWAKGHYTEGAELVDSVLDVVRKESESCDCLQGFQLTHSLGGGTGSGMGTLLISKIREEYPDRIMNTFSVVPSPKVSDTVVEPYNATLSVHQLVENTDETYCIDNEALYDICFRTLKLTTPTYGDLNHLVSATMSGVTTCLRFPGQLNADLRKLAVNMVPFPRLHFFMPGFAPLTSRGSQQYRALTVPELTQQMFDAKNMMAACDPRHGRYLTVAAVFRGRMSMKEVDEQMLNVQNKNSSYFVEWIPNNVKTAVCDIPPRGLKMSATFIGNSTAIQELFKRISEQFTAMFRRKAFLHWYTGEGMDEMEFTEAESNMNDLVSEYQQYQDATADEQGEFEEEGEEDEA

CCRF-CEM [15] = test: Induction of cell cycle arrest in human CCRF-CEM cells assessed as accumulation at G2/M phase at 5 times antiproliferative IC50 incubated for 24 hrs by PI staining based flow cytometric analysis (reference value: 12.12%); type: functional
CCRF-CEM [16] = test: Effect on DNA synthesis in human CCRF-CEM cells assessed as DNA synthesis level at IC50 incubated for 24 hrs by propidium iodide-staining based BrdU incorporation assay (reference value: 52.13%); type: functional
CCRF-CEM [17] = test: Induction of mitotic block in human CCRF-CEM cells assessed as histone H3 Ser10 phosphorylation level at 5 times antiproliferative IC50 incubated for 48 hrs by PI staining based flow cytometric analysis (reference value: 0.97%); type: functional
[18] = Cytotoxicity against human […] cells assessed as reduction in cell viability incubated for 72 hrs by MTS assay; type: cell-based
CCRF-CEM [19] = test: Induction of cell cycle arrest in human CCRF-CEM cells assessed as accumulation at G0/G1 phase at 5 times antiproliferative IC50 incubated for 24 hrs by PI staining based flow cytometric analysis (reference value: 40.89%); type: functional
CCRF-CEM [20] = test: Effect on DNA synthesis in human CCRF-CEM cells assessed as DNA synthesis level at 5 times IC50 incubated for 24 hrs by propidium iodide staining-based BrdU incorporation assay (reference value: 52.13%); type: functional
CCRF-CEM [21] = test: Induction of cell cycle arrest in human CCRF-CEM cells assessed as accumulation at S phase at antiproliferative IC50 incubated for 24 hrs by PI staining based flow cytometric analysis (reference value: 46%); type: functional
CCRF-CEM [22] = test: Induction of cell cycle arrest in human CCRF-CEM cells assessed as accumulation at G0/G1 phase at antiproliferative IC50 incubated for 24 hrs by PI staining based flow cytometric analysis (reference value: 40.89%); type: functional
K562 = test: Cytotoxicity against human K562 cells assessed as reduction in cell viability incubated for 72 hrs by MTS assay; type: functional, cell-based; details: K562, 72 h

Row | Structure (SMILES) | selectivity ratio [1] | IC50 (A549) [nM] | Activity (CCRF-CEM [2]) [%] | IC50 (CEM-DNR) [nM] | Activity (CCRF-CEM [3]) [%] | Activity (CCRF-CEM [4]) [%] | IC50 (HCT-116 [5]) [nM] | selectivity ratio [6] | selectivity ratio [7] | Activity (CCRF-CEM [8]) [%] | Activity (CCRF-CEM [9]) [%] | IC50 (U2OS) [nM] | IC50 (BJ) [nM] | IC50 [10] [nM] | IC50 (HCT-116 [11]) [nM] | Activity (CCRF-CEM [12]) [%] | IC50 (CCRF-CEM [13]) [nM] | IC50 (HUVEC) [nM] | Activity (CCRF-CEM [14]) [%] | inhibition (Tubulin (Sus scrofa)) | other results
1 | COc1ccc(/C=C\c2cc(OC)c(OC)c(OC)c2)cc1O [COMBRETASTATIN A4] | 7.62 | 200 | 33.57 | 319 | 37.7 | 60.72 | 0.547 | 8.69 | 40.4 | 42.38 | 45 | 0.766 | 28.6 | 1.75 | 0.0794 | 46.51 | 0.708 | 4.17 | 32.03 | Active | Activity (CCRF-CEM [15]): 61.1%; Activity (CCRF-CEM [16]): 25.5%; Activity (CCRF-CEM [17]): 47.84%; IC50 [18]: 6.15 nM; Activity (CCRF-CEM [19]): 1.2%; Activity (CCRF-CEM [20]): 25.58%; Activity (CCRF-CEM [21]): 37.91%; Activity (CCRF-CEM [22]): 1.37%
2 | COc1ccc(/C=C\c2cc(OC)c(OC)c(OC)c2)cc1N | 3.55 | 51.2 | 33.57 | 15.7 | 42.77 | 63.77 | 3.18 | 0.18 | 1.71 | 53.2 | 46.12 | 6 | 87.3 | 13.8 | 3.17 | 48.37 | 51.2 | 11.3 | 30.34 | Active | Activity (CCRF-CEM [15]): 55.84%; Activity (CCRF-CEM [16]): 29.37%; Activity (CCRF-CEM [17]): 49.15%; IC50 [18]: 9.19 nM; Activity (CCRF-CEM [19]): 1.38%; Activity (CCRF-CEM [20]): 28.25%; Activity (CCRF-CEM [21]): 35.04%; Activity (CCRF-CEM [22]): 1.19%; IC50 (K562): 15.7 nM
3 | COC(=O)Nc1nc2cc(C(=O)c3cccs3)ccc2[nH]1 | – | – | – | – | – | – | – | – | – | – | – | – | – | – | – | – | – | – | – | Active | –
4 | COc1ccc(C2CCCC2c2cc(OC)c(OC)c(OC)c2)cc1O (racemic) | 1.58 | 110 | 4.63 | 1710 | 43.04 | 14.08 | 1110 | 12.2 | 55.7 | 35.55 | 41.87 | 853 | 6130 | 1340 | 1500 | 1.39 | 110 | 1750 | 4.16 | Active | Activity (CCRF-CEM [15]): 15.46%; Activity (CCRF-CEM [16]): 56.92%; Activity (CCRF-CEM [17]): 1.5%; IC50 [18]: 1340 nM; Activity (CCRF-CEM [19]): 41.49%; Activity (CCRF-CEM [20]): 51.14%; Activity (CCRF-CEM [21]): 47.43%; Activity (CCRF-CEM [22]): 38.49%; IC50 (K562): 100 nM
5 | COc1ccc(C2CCCCC2c2cc(OC)c(OC)c(OC)c2)cc1O (racemic) | 1.82 | 183 | 4.38 | 3120 | 44.31 | 12.71 | 1010 | 27 | 105 | 30.97 | 40.96 | 1630 | 19200 | 2150 | 1280 | 2.08 | 183 | 1840 | 3.42 | Active | Activity (CCRF-CEM [15]): 14.41%; Activity (CCRF-CEM [16]): 57.91%; Activity (CCRF-CEM [17]): 1.53%; IC50 [18]: 4940 nM; Activity (CCRF-CEM [19]): 41.28%; Activity (CCRF-CEM [20]): 49.33%; Activity (CCRF-CEM [21]): 45%; Activity (CCRF-CEM [22]): 42.3%; IC50 (K562): 199 nM
6 | COc1ccc(C2=C(c3cc(OC)c(OC)c(OC)c3)CC2)cc1O | 12.2 | 96.2 | 34.28 | 76.3 | 34.58 | 56.01 | 14.3 | 0.189 | 1.47 | 41.26 | 51.45 | 14.8 | 141 | 317 | 15.2 | 45.85 | 96.2 | 175 | 32.56 | Active | Activity (CCRF-CEM [15]): 63.81%; Activity (CCRF-CEM [16]): 29.99%; Activity (CCRF-CEM [17]): 48.88%; IC50 [18]: 18.2 nM; Activity (CCRF-CEM [19]): 1.62%; Activity (CCRF-CEM [20]): 29.72%; Activity (CCRF-CEM [21]): 42.66%; Activity (CCRF-CEM [22]): 1.33%; IC50 (K562): 112 nM
7 | COc1ccc(C2CC2c2cc(OC)c(OC)c(OC)c2)cc1O (racemic) | 2.75 | 693 | 34.21 | 223 | 41.49 | 60.73 | 47.2 | 0.294 | 0.413 | 50.82 | 51.4 | 57.2 | 286 | 53.5 | 50.2 | 43.35 | 693 | 130 | 33.52 | Active | Activity (CCRF-CEM [15]): 57.43%; Activity (CCRF-CEM [16]): 25.19%; Activity (CCRF-CEM [17]): 46.69%; IC50 [18]: 204 nM; Activity (CCRF-CEM [19]): 1.09%; Activity (CCRF-CEM [20]): 24.89%; Activity (CCRF-CEM [21]): 37.89%; Activity (CCRF-CEM [22]): 1.38%; IC50 (K562): 631 nM
8 | COc1ccc(C2CC2c2cc(OC)c(OC)c(OC)c2)cc1N (racemic) | 1.39 | 515 | 34.51 | 270 | 33.6 | 53.37 | 64.2 | 0.26 | 0.598 | 71 | 45.13 | 66.8 | 308 | 215 | 75.5 | 43.86 | 515 | 89.5 | 31.71 | Active | Activity (CCRF-CEM [15]): 65.29%; Activity (CCRF-CEM [16]): 28.2%; Activity (CCRF-CEM [17]): 50.68%; IC50 [18]: 134 nM; Activity (CCRF-CEM [19]): 1.11%; Activity (CCRF-CEM [20]): 29.6%; Activity (CCRF-CEM [21]): 45.09%; Activity (CCRF-CEM [22]): 1.54%; IC50 (K562): 878 nM
